US20200017495A1, “NOVEL HETEROCYCLIC COMPOUNDS AND THEIR USE IN PREVENTING OR TREATING BACTERIAL INFECTIONS” (priority 2017, published 2020)
Where “and” joins values, the source holds several entries; their conditions need not be identical. Identical values can stand only once. Like-named read-outs stand apart in the source and are kept apart here.

Experiments:
Assay in all cases: MIC of compounds alone and combined with antibacterials, broth microdilution (CLSI)
Type in all cases: cell-based
[1] = test system: Klebsiella pneumoniae (KPN) isolates
How it was run: (§1)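 Log-phase isolates were inoculated at a final 5.10^5 CFU/mL in cation-adjusted Mueller-Hinton broth and incubated 16-20 h at 35° C in ambient air. MIC was the lowest concentration preventing visible growth; for combinations, the antibacterial MIC was read at each compound concentration.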

[2] = test system: Serratia marcescens (SMA) isolates
How it was run: as §1

[3] = test system: Citrobacter murliniae (CMU) isolates
How it was run: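 Visual read-out: MIC is the lowest concentration stopping growth, and in combinations the lowest antibacterial concentration doing so at each fixed compound level. Inoculum 5.10^5 CFU/mL log-phase cells in ca-MHB, 35° C, 16-20 h, ambient air.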

CC1(C)S[C@@H]2[C@H](NC(=O)[C@H](N)c3ccc(O)cc3)C(=O)N2[C@H]1C(=O)O [AMX, Amoxicillin]
32 µg/mL: MIC ATB in combination ([1]; KPN 200047, CLA @ 4 μg/mL) | MIC ATB in combination ([1]; KPN 200327, CLA @ 4 μg/mL) | MIC ATB in combination ([1]; KPN 270077, AF2 @ 8 μg/mL) | MIC ATB in combination ([1]; KPN 270077, CLA @ 4 μg/mL) | MIC ATB in combination ([1]; KPN UFR24, AF2 @ 8 μg/mL) | MIC ATB in combination ([1]; KPN UFR218, CLA @ 4 μg/mL)
>512 µg/mL: MIC ATB in combination ([1]; KPN 6299, CLA @ 4 μg/mL) | MIC ATB in combination ([1]; KPN 131119, CLA @ 4 μg/mL) | MIC ATB in combination ([1]; KPN BAA-1898, CLA @ 4 μg/mL) | MIC ATB in combination ([1]; KPN LIB, CLA @ 4 μg/mL)
2 µg/mL: MIC ATB in combination ([1]; KPN 6299, AF2 @ 8 μg/mL)
>128 µg/mL: MIC [1] | MIC ([1]; strain KPN 140347, genotype CTX-M-15, NDM-1, antibiotic alone) | MIC ([1]; strain KPN UFR162, genotype SHV-28, TEM-1, CTX-M-15, OXA-181, OXA-181, NDM-1, antibiotic alone) | MIC ([1]; strain KPN UFR163, genotype TEM-1, SHV-1, CTX-M-15, OXA-232, OXA-9, NDM-1, qnrB1, qepA, RmtB, antibiotic alone) | MIC ([1]; strain KPN UFR164, genotype SHV-11, CTX-M-15, OXA-1, OXA-181, NDM-1, antibiotic alone) | MIC ([1]; strain KPN UFR165, genotype TEM-1, SHV-11, CTX-M-15, OXA-1, OXA-181, NDM-1, antibiotic alone) | MIC ([1]; strain KPN UFR166, genotype TEM-1, TEM-1, CTX-M-15, OXA-181, OXA-9, NDM-1, antibiotic alone) | MIC ([1]; strain KPN UFR167, genotype TEM-1, SHV-12, CTX-M-15, OXA-9, NDM-1, antibiotic alone) | MIC ([1]; strain KPN UFR168, genotype SHV-2, CTX-M-15, OXA-1, OXA-181, NDM-1, ArmA, antibiotic alone) | MIC ([1]; strain KPN UFR169, genotype TEM-1, SHV-28, CTX-M-15, CMY-4, OXA-1, NDM-1, antibiotic alone) | MIC ([1]; strain KPN UFR170, genotype TEM-1, SHV-28, CTX-M-15, CMY-6, OXA-1, OXA-9, NDM-1, antibiotic alone) | MIC ([1]; strain KPN UFR171, genotype TEM-1, SHV-28, CTX-M-15, OXA-1, OXA-10, NDM-1, RmtA, antibiotic alone) | MIC ([1]; strain KPN UFR172, genotype SHV-38, CMY-16, OXA-10, NDM-1, antibiotic alone) | MIC ([1]; strain KPN UFR215, genotype SHV-27, CTX-M-15) | MIC ([1]; strain KPN UFR216, genotype SHV-28, CTX-M-15) | MIC ([1]; strain KPN UFR217, genotype TEM-1, SHV-1, CTX-M-15) | MIC ([1]; strain KPN UFR219, genotype SHV-12, CTX-M-15) | MIC ([1]; strain KPN UFR220, genotype TEM-1, SHV-12, DHA-1) | MIC ([1]; strain KPN UFR221, genotype TEM-1, SHV-11, CTX-M-14, DHA-1) | MIC ([1]; strain KPN UFR229O, genotype SHV-12, VIM-1, antibiotic alone) | MIC [2] | MIC ([2]; strain SMA UFR134, genotype TEM-1, BES-1) | MIC ([2]; strain SMA UFR135, genotype TEM-1, KPC-2) | MIC ([2]; strain SMA UFR136, genotype TEM-1, SHV-12, KPC-2) | MIC ([2]; strain SMA UFR140, genotype IMP-1) | MIC ([2]; strain SMA UFR141, genotype OXA-48) | MIC ([2]; strain SMA UFR142, genotype OXA-48) | MIC ([2]; strain SMA UFR143, genotype CTX-M-15, OXA-1, OXA-48) | MIC ([2]; strain SMA UFR238, genotype OXA-48) | MIC ATB in combination [3]
>256 µg/mL: MIC ([1]; strain KPN 110376, genotype TEM-1, SHV-1, CTX-M-15, OXA-1, OXA-48) | MIC ([1]; strain KPN 121206, genotype SHV-1, NDM-1) | MIC ([1]; strain KPN 131119, genotype TEM-1, SHV-11, CTX-M-15, OXA-1, OXA-48) | MIC ([1]; strain KPN 140513, genotype TEM-1, SHV-11, CTX-M-15, KPC-3) | MIC ([1]; strain KPN 160143, genotype TEM-1, SHV-1, CTX-M-15, KPC-2, OXA-1) | MIC ([1]; strain KPN 190128, genotype TEM-1, SHV-32, CTX-M-15, OXA-1) | MIC ([1]; strain KPN 190270, genotype TEM-1, SHV-76, CTX-M-15, OXA-1) | MIC ([1]; strain KPN 190425, genotype TEM-1, SHV-1, CTX-M-15, OXA-1) | MIC ([1]; strain KPN 190551, genotype TEM-1, SHV-1, CTX-M-15, OXA-1) | MIC ([1]; strain KPN 200047, genotype TEM-1, SHV-32, CTX-M-15, OXA-1) | MIC ([1]; strain KPN 200327, genotype TEM-1, SHV-1, CTX-M-15, OXA-1) | MIC ([1]; strain KPN 260251, genotype TEM-1, SHV-11, SHV-12, CTX-M-15, KPC-2) | MIC ([1]; strain KPN 260252, genotype TEM-1, SHV-11, KPC-3) | MIC ([1]; strain KPN 260376, genotype SHV-1, SHV-49, OXA-1) | MIC ([1]; strain KPN 270077, genotype TEM-1, SHV-1, CTX-M-15) | MIC ([1]; strain KPN 700603, genotype SHV-18, OXA-2) | MIC ([1]; strain KPN ARA, genotype TEM-1, SHV-11, CTX-M-15, OXA-1, OXA-48) | MIC ([1]; strain KPN LIB, genotype SHV-11, OXA-48) | MIC ([1]; strain KPN UFR22_O, genotype TEM-1, SHV-1, OXA-48) | MIC ([1]; strain KPN UFR23, genotype TEM-1, SHV-1, OXA-48) | MIC ([1]; strain KPN UFR24, genotype TEM-1, SHV-2, SHV-11, OXA-1, OXA-48, OXA-47) | MIC ([1]; strain KPN UFR25, genotype TEM-1, SHV-11, CTX-M-15, OXA-162) | MIC ([1]; strain KPN UFR27, genotype TEM-1, SHV-28, CTX-M-15, OXA-204) | MIC ([1]; strain KPN UFR28, genotype TEM-1, SHV-1, CTX-M-15, OXA-1, OXA-232) | MIC ([1]; strain KPN UFR33, genotype TEM-2, SHV-12, CTX-M-15, OXA-1, OXA-10) | MIC ([1]; strain KPN UFR42, genotype SHV-2, CTX-M-15 OXA-1, OXA-181, NDM-1) | MIC ([1]; strain KPN UFR43, genotype SHV-11, CTX-M-15, CMY-2, OXA-1, NDM-1) | MIC ([1]; strain KPN UFR46, genotype TEM-1, SHV-12, CTX-M-15, OXA-9, VIM-1) | MIC ([1]; strain KPN UFR53, genotype TEM-1, IMP-1) | MIC ([1]; strain KPN UFR65, genotype TEM-1, SHV-11, KPC-2) | MIC ([1]; strain KPN UFR66, genotype TEM-1, SHV-11, CTX-M-15, KPC-2) | MIC ([1]; strain KPN UFR67, genotype TEM-1, SHV-11, KPC-3) | MIC ([1]; strain KPN UFR76, genotype TEM-155, SHV-11, ACT-1, OXA-2) | MIC ([1]; strain KPN UFR77, genotype CMY-2) | MIC ([1]; strain KPN UFR78, genotype TEM-1, SHV-1, CTX-M-15, CMY-2, OXA-1, OXA-48) | MIC ([1]; strain KPN UFR79, genotype DHA-1, OXA-1) | MIC ([1]; strain KPN UFR80, genotype SHV-11, DHA-1, OXA-1) | MIC ([1]; strain KPN UFR81, genotype TEM-1, SHV-1, DHA-1, OXA-48) | MIC ([2]; strain SMA UFR30, genotype OXA-405) | MIC ([3]; strain CMU 210102, genotype VIM-4)
>1024 µg/mL: MIC ([1]; strain KPN 6299, genotype TEM-1, SHV-11, OXA-163) | MIC ([1]; strain KPN BAA-1898, genotype TEM-1, SHV-11, SHV-12, KPC-2) | MIC ([1]; strain KPN UFR68, genotype TEM-1, SHV-11, CTX-M-15, KPC-3)
8 µg/mL: MIC ATB in combination ([1]; KPN 700603, CLA @ 4 μg/mL) | MIC ATB in combination ([1]; KPN UFR33, AF2 @ 8 μg/mL)
>128 µg/mL and 128 µg/mL: MIC ATB in combination [2]
4 µg/mL: MIC ATB in combination ([1]; KPN 260251, AF2 @ 8 μg/mL) | MIC ATB in combination ([1]; KPN 700603, AF2 @ 8 μg/mL) | MIC ATB in combination ([1]; KPN UFR23, AF2 @ 8 μg/mL)
64 µg/mL: MIC ATB in combination ([1]; KPN UFR80, AF2 @ 8 μg/mL) | MIC ATB in combination ([2]; SMA UFR30, AF2 @ 8 μg/mL) | MIC ATB in combination ([2]; SMA UFR239, CLA @ 4 μg/mL)
<0.25 µg/mL: MIC ATB in combination ([1]; KPN 160143, AF2 @ 8 μg/mL) | MIC ATB in combination ([1]; KPN 190551, AF2 @ 8 μg/mL) | MIC ATB in combination ([1]; KPN 200047, AF2 @ 8 μg/mL) | MIC ATB in combination ([1]; KPN 200327, AF2 @ 8 μg/mL) | MIC ATB in combination ([1]; KPN 260376, AF2 @ 8 μg/mL) | MIC ATB in combination ([1]; KPN UFR25, AF2 @ 8 μg/mL) | MIC ATB in combination ([1]; KPN UFR43, AF2 @ 8 μg/mL) | MIC ATB in combination ([1]; KPN UFR53, AF2 @ 8 μg/mL) | MIC ATB in combination ([1]; KPN UFR77, AF2 @ 8 μg/mL)
>128 µg/mL and 128 µg/mL and <128 µg/mL: MIC ATB in combination [1]
<=0.25 μg/mL: MIC ATB in combination ([1]; KPN ARA, AF2 @ 8 μg/mL) | MIC ATB in combination ([1]; KPN LIB, AF2 @ 8 μg/mL) | MIC ATB in combination ([1]; KPN UFR28, AF2 @ 8 μg/mL)
0.5 µg/mL: MIC ATB in combination ([1]; KPN 110376, AF2 @ 8 μg/mL) | MIC ATB in combination ([1]; KPN UFR22_O, AF2 @ 8 μg/mL)
